According to paper PMC7822065, “Discovery of indole-3-butyric acid derivatives as potent histone deacetylase inhibitors” (Journal of Enzyme Inhibition and Medicinal Chemistry, 2021):

Assays:
U266 cells = test: MTT antiproliferative assay, U266; conditions: Homo sapiens, U-266, 48 h, read-out: U266 IC50
Experimental: The stock solutions of tested compounds were diluted with culture medium. […] Then, the cells were treated with compound sample at various concentrations for 48 h. Afterward, 20 MTT working solution (5 mg/ml) was added to each well and incubated for another 4 h. After incubation, the medium formed from MTT was extracted by adding DMSO (200 µl). The optical density (OD) at 490 nm and 630 nm were measured by Universal Microplate Spectrophotometer. […] The IC50 values were calculated with Origin 7.5 software (Originlab Corporation, Northampton, MA), and standard deviations of the IC50 values were obtained through at least 3 independent experiments.
To evaluate the antiproliferative activity of hydroxamic acid containing molecules, MTT assays were performed using U937, U266, and HepG2 cell lines.

[1] = test system: HDACs (HeLa nucleus extract containing a mixture of HDAC isoforms); test: HDAC inhibitory assay with HeLa nucleus extract; conditions: at the concentration of 1 µM

IC50 (U266 cells) [nM] | SMILES | HDACs, percentage inhibition rate (PIR) [1] [%] | HDACs, percentage inhibition rate (PIR) ([1]; 1 µM) [%]
15970 ± 140 | CCNNC(=O)c1ccc(NC(=O)CCCc2c[nH]c3ccccc23)cc1 [Compound I1e1, N-[4-(N′-Ethyl-hydrazinocarbonyl)-phenyl]-4-(1H-indol-3-yl)-butyramide] | 50.60 ± 2.02 | –
640 ± 20 | CCCNNC(=O)c1ccc(NC(=O)CCCc2c[nH]c3ccccc23)cc1 [Compound I1e2, 4-(1H-Indol-3-yl)-N-[4-(N′-propyl-hydrazinocarbonyl)-phenyl]-butyramide] | 61.34 ± 3.56 | –
1060 ± 50 | CCCCNNC(=O)c1ccc(NC(=O)CCCc2c[nH]c3ccccc23)cc1 [Compound I1e3, N-[4-(N′-Butyl-hydrazinocarbonyl)-phenyl]-4-(1H-indol-3-yl)-butyramide] | 30.47 ± 1.17 | –
16000 ± 670 | CC(C)CNNC(=O)c1ccc(NC(=O)CCCc2c[nH]c3ccccc23)cc1 [Compound I1e4, 4-(1H-Indol-3-yl)-N-[4-(N′-isobutyl-hydrazinocarbonyl)-phenyl]-butyramide] | 7.16 ± 1.50 | –
1110 ± 80 | CCCNNC(=O)c1ccc(NC(=O)CCCc2cn(Cc3ccccc3)c3ccccc23)cc1 [Compound I2e2, 4-(1-Benzyl-1H-indol-3-yl)-N-[4-(N′-propyl-hydrazinocarbonyl)-phenyl]-butyramide] | – | 57.46 ± 2.06
1710 ± 70 | CCCCNNC(=O)c1ccc(NC(=O)CCCc2cn(Cc3ccccc3)c3ccccc23)cc1 [Compound I2e3, 4-(1-Benzyl-1H-indol-3-yl)-N-[4-(N′-butyl-hydrazinocarbonyl)-phenyl]-butyramide] | 51.41 ± 2.78 | –
480 ± 100 | CCCNNC(=O)c1ccc(NC(=O)CCCc2cn(CC)c3ccccc23)cc1 [Compound I3e2, 4-(1-Ethyl-1H-indol-3-yl)-N-[4-(N′-propyl-hydrazinocarbonyl)-phenyl]-butyramide] | 36.51 ± 2.93 | –
1450 ± 100 | CCCCNNC(=O)c1ccc(NC(=O)CCCc2cn(CC)c3ccccc23)cc1 [Compound I3e3, N-[4-(N′-Butyl-hydrazinocarbonyl)-phenyl]-4-(1-ethyl-1H-indol-3-yl)-butyramide] | 31.94 ± 1.51 | –
1320 ± 80 | CCCNNC(=O)c1ccc(NC(=O)CCCc2cn(Cc3cccc(F)c3)c3ccccc23)cc1 [Compound I7e2, 4-[1-(3-Fluoro-benzyl)-1H-indol-3-yl]-N-[4-(N′-propyl-hydrazinocarbonyl)-phenyl]-butyramide] | 30.45 ± 3.38 | –
740 ± 50 | CCCNNC(=O)c1ccc(NC(=O)CCCc2cn(Cc3c(F)cccc3F)c3ccccc23)cc1 [Compound I10e2, 4-[1-(2,6-Difluoro-benzyl)-1H-indol-3-yl]-N-[4-(N′-propyl-hydrazinocarbonyl)-phenyl]-butyramide] | 46.85 ± 2.06 | –
1280 ± 120 | CCCCn1cc(CCCC(=O)Nc2ccc(C(=O)NNCCC)cc2)c2ccccc21 [Compound I12e2, 4-(1-Butyl-1H-indol-3-yl)-N-[4-(N′-propyl-hydrazinocarbonyl)-phenyl]-butyramide] | 39.73 ± 1.84 | –
1440 ± 310 | CCCCNNC(=O)c1ccc(NC(=O)CCCc2cn(CCCC)c3ccccc23)cc1 [Compound I12e3, N-[4-(N′-Butyl-hydrazinocarbonyl)-phenyl]-4-(1-butyl-1H-indol-3-yl)-butyramide] | 42.76 ± 1.56 | –
710 ± 110 | CCCNNC(=O)c1ccc(NC(=O)CCCc2cn(C)c3ccccc23)cc1 [Compound I13e2, 4-(1-Methyl-1H-indol-3-yl)-N-[4-(N′-propyl-hydrazinocarbonyl)-phenyl]-butyramide] | 29.68 ± 2.06 | –
1360 ± 60 | CCCCNNC(=O)c1ccc(NC(=O)CCCc2cn(C)c3ccccc23)cc1 [Compound I13e3, N-[4-(N′-Butyl-hydrazinocarbonyl)-phenyl]-4-(1-methyl-1H-indol-3-yl)-butyramide] | 32.15 ± 1.03 | –
